Laboratory results taken from patent US20240400591A1 (Jacobio Pharmaceuticals Co., Ltd., priority 2021, published 2024).

Biological target: T1, His-p53 Y220C (94-294) protein (Homo sapiens, UniProt P04637, Y220C)
T1 construct: His-p53 Y220C (94-294) protein
Test: In vitro DNA binding assay (HTRF)
Assay type: biochemical
Settings: % activation normalized to 2 μM Ref-1a high control

EC50 [nM] | SMILES
141 | CN1CCC(Nc2cccc3c(CC(F)(F)F)c(C#CCNc4ccc(S(C)(=O)=O)cc4OCC(F)F)sc23)CC1 [Example 12, N-(2-(3-((2-(2,2-difluoroethoxy)-4-(methylsulfonyl)phenyl)amino)prop-1-yn-1-yl)-3-(2,2,2-trifluoroethyl)benzo[b]thiophen-7-yl)-1-methylpiperidin-4-amine]
2910 | C[C@H](C#Cc1sc2c(NC3CCN(C)CC3)cccc2c1CC(F)(F)F)Nc1ccc(S(N)(=O)=O)cc1 [Example 44, (R)-4-((4-(7-((1-methylpiperidin-4-yl)amino)-3-(2,2,2-trifluoroethyl)benzo[b]thiophen-2-yl)but-3-yn-2-yl)amino)benzenesulfonamide]
6400 | CN1CCC(Nc2cccc3c(CC(F)(F)F)c(C#CCNc4cccc5cc[nH]c45)sc23)CC1 [Example 29, N-(3-(7-((1-methylpiperidin-4-yl)amino)-3-(2,2,2-trifluoroethyl)benzo[b]thiophen-2-yl)prop-2-yn-1-yl)-1H-indol-7-amine]
3880 | COc1cc(S(C)(=O)=O)ccc1NCC#Cc1sc2c(NC3CCN(CC(F)(F)F)CC3)cccc2c1CC(F)(F)F [Example 37, N-(2-(3-((2-methoxy-4-(methylsulfonyl)phenyl)amino)prop-1-yn-1-yl)-3-(2,2,2-trifluoroethyl)benzo[b]thiophen-7-yl)-1-(2,2,2-trifluoroethyl)piperidin-4-amine]
312 | COc1cc(S(C)(=O)=O)ccc1NCC#Cc1sc2c(NC3C4CCC3CN(C)C4)cccc2c1CC(F)(F)F (stereo not shown) [Example 25, N-(2-(3-((2-methoxy-4-(methylsulfonyl)phenyl)amino)prop-1-yn-1-yl)-3-(2,2,2-trifluoroethyl)benzo[b]thiophen-7-yl)-3-methyl-3-azabicyclo[3.2.1]octan-8-amine]
816 | CN1CC[C@@H](Nc2cccc3c(CC(F)(F)F)c(C#CCNc4cc(P(C)(C)=O)n[nH]4)sc23)[C@@H](F)C1 [Example 204, (5-((3-(7-(((3S,4R)-3-fluoro-1-methylpiperidin-4-yl)amino)-3-(2,2,2-trifluoroethyl)benzo[b]thiophen-2-yl)prop-2-yn-1-yl)amino)-1H-pyrazol-3-yl)dimethylphosphine oxide]
284 | COc1cc(S(C)(=O)=O)ccc1NCC#Cc1sc2c(NCC3CCN(C)CC3)cccc2c1CC(F)(F)F [Example 56, 2-(3-((2-methoxy-4-(methylsulfonyl)phenyl)amino)prop-1-yn-1-yl)-N-((1-methylpiperidin-4-yl)methyl)-3-(2,2,2-trifluoroethyl)benzo[b]thiophen-7-amine]
535 | CN1CCC(Nc2cccc3c(CC(F)(F)F)c(C#CCNc4ccc(S(C)(=O)=O)c5cc[nH]c45)sc23)CC1 [Example 31, N-(3-(7-((1-methylpiperidin-4-yl)amino)-3-(2,2,2-trifluoroethyl)benzo[b]thiophen-2-yl)prop-2-yn-1-yl)-4-(methylsulfonyl)-1H-indol-7-amine]
96 | COc1cc(P(C)(C)=O)ccc1NCC#Cc1sc2c(N[C@@H]3CCN(C4CC(C)(C)OC(C)(C)C4)C[C@@H]3F)cccc2c1CC(F)(F)F [Example 181, (4-((3-(7-(((3S,4R)-3-fluoro-1-(2,2,6,6-tetramethyltetrahydro-2H-pyran-4-yl)piperidin-4-yl)amino)-3-(2,2,2-trifluoroethyl)benzo[b]thiophen-2-yl)prop-2-yn-1-yl)amino)-3-methoxyphenyl)dimethylphosphine oxide]
78 | CN1CC[C@H](Nc2cccc3c(CC(F)(F)F)c(C#CCNc4ccc(P(C)(C)=O)cc4OC(F)(F)F)sc23)[C@H](F)C1 [Example 137, (4-((3-(7-(((3R,4S)-3-fluoro-1-methylpiperidin-4-yl)amino)-3-(2,2,2-trifluoroethyl)benzo[b]thiophen-2-yl)prop-2-yn-1-yl)amino)-3-(trifluoromethoxy)phenyl)dimethylphosphine oxide]
194 | COc1cc(S(C)(=O)=O)ccc1NCC#Cc1sc2c(NC3CCNCC3)cccc2c1CC(F)(F)F [Example 38, N-(2-(3-((2-methoxy-4-(methylsulfonyl)phenyl)amino)prop-1-yn-1-yl)-3-(2,2,2-trifluoroethyl)benzo[b]thiophen-7-yl)piperidin-4-amine]
126 | COc1cc(P(C)(C)=O)cnc1NCC#Cc1sc2c(N[C@@H]3CCN(C)C[C@@H]3F)cccc2c1CC(F)(F)F [Example 207, (6-((3-(7-(((3S,4R)-3-fluoro-1-methylpiperidin-4-yl)amino)-3-(2,2,2-trifluoroethyl)benzo[b]thiophen-2-yl)prop-2-yn-1-yl)amino)-5-methoxypyridin-3-yl)dimethylphosphine oxide]
1220 | COc1cc(P(C)(C)=O)ccc1NCC#Cc1sc2c(N[C@H]3CCN(C)C[C@@H]3F)cccc2c1-c1ccc(F)cc1 (racemic) [Example 139, (4-((3-(7-(((E)-3-fluoro-1-methylpiperidin-4-yl)amino)-3-(4-fluorophenyl)benzo[b]thiophen-2-yl)prop-2-yn-1-yl)amino)-3-methoxyphenyl)dimethylphosphine oxide]
224 | COc1cc(P(C)(C)=O)ccc1NCC#Cc1sc2c(NCC34CCCN3CCC4)cccc2c1CC(F)(F)F [Example 54, (3-methoxy-4-((3-(7-(((tetrahydro-1H-pyrrolizin-7a(5H)-yl)methyl)amino)-3-(2,2,2-trifluoroethyl)benzo[b]thiophen-2-yl)prop-2-yn-1-yl)amino)phenyl)dimethylphosphine oxide]
169 | CSc1c(NCC#Cc2sc3c(N[C@@H]4CCN(C)C[C@@H]4F)cccc3c2CC(F)(F)F)ccc(P(C)(C)=O)c1F [Example 221, (2-fluoro-4-((3-(7-(((3S,4R)-3-fluoro-1-methylpiperidin-4-yl)amino)-3-(2,2,2-trifluoroethyl)benzo[b]thiophen-2-yl)prop-2-yn-1-yl)amino)-3-(methylthio)phenyl)dimethylphosphine oxide]
72 | COc1cc(S(C)(=O)=O)ccc1NCC#Cc1sc2c(N[C@H]3CC[C@H](N4CC5(COC5)C4)CC3)cccc2c1CC(F)(F)F [Example 17, trans-N-(4-(2-oxa-6-azaspiro[3.3]heptan-6-yl)cyclohexyl)-2-(3-((2-methoxy-4-(methylsulfonyl)phenyl)amino)prop-1-yn-1-yl)-3-(2,2,2-trifluoroethyl)benzo[b]thiophen-7-amine]
305 | COc1cc(S(C)(=O)=O)ccc1NCC#Cc1sc2c(NC3CCN(CCF)CC3)cccc2c1CC(F)(F)F [Example 36, 1-(2-fluoroethyl)-N-(2-(3-((2-methoxy-4-(methylsulfonyl)phenyl)amino)prop-1-yn-1-yl)-3-(2,2,2-trifluoroethyl)benzo[b]thiophen-7-yl)piperidin-4-amine]
345 | CCc1c(C#CCNc2ccc(S(N)(=O)=O)cc2)sc2c(NC3CCN(C)CC3)cccc12 [Example 1, 4-((3-(3-ethyl-7-((1-methylpiperidin-4-yl)amino)benzo[b]thiophen-2-yl)prop-2-yn-1-yl)amino)benzenesulfonamide]
60 | COc1cc(NCC#Cc2sc3c(NC4CCN(C)CC4F)cccc3c2CC(F)(F)F)ccc1P(C)(C)=O (stereo not shown) [Example 151, (4-((3-(7-(((Z)-3-fluoro-1-methylpiperidin-4-yl)amino)-3-(2,2,2-trifluoroethyl)benzo[b]thiophen-2-yl)prop-2-yn-1-yl)amino)-2-methoxyphenyl)dimethylphosphine oxide]
102 | COc1cc(P(C)(C)=O)ccc1NCC#Cc1sc2c(N[C@H]3CCN(C)C[C@H]3Cl)cccc2c1CC(F)(F)F [Example 144, (3R,4S)-3-chloro-N-[2-[3-(4-dimethylphosphoryl-2-methoxy-anilino)prop-1-ynyl]-3-(2,2,2-trifluoroethyl)benzothiophen-7-yl]-1-methyl-piperidin-4-amine]
341 | COc1cc(S(=O)(=O)N(C)C)ccc1NCC#Cc1sc2c(NC3CCN(C)CC3)cccc2c1CC(F)(F)F [Example 21, 3-methoxy-N,N-dimethyl-4-((3-(7-((1-methylpiperidin-4-yl)amino)-3-(2,2,2-trifluoroethyl)benzo[b]thiophen-2-yl)prop-2-yn-1-yl)amino)benzenesulfonamide]
108 | CCP(=O)(CC)c1ccc(NCC#Cc2sc3c(N[C@@H]4CCN(C5CCOCC5)C[C@@H]4F)cccc3c2CC(F)(F)F)c(OC)c1 [Example 156, diethyl(4-((3-(7-(((3S,4R)-3-fluoro-1-(tetrahydro-2H-pyran-4-yl)piperidin-4-yl)amino)-3-(2,2,2-trifluoroethyl)benzo[b]thiophen-2-yl)prop-2-yn-1-yl)amino)-3-methoxyphenyl)phosphine oxide]
904 | COc1cc2c(cc1NCC#Cc1sc3c(N[C@@H]4CCN(C)C[C@@H]4F)cccc3c1CC(F)(F)F)CNS2(=O)=O (racemic) [Example 77, 5-((3-(7-(((Z)-3-fluoro-1-methylpiperidin-4-yl)amino)-3-(2,2,2-trifluoroethyl)benzo[b]thiophen-2-yl)prop-2-yn-1-yl)amino)-6-methoxy-2,3-dihydrobenzo[d]isothiazole 1,1-dioxide]
169 | COc1cc(S(C)(=O)=O)ccc1NCC#Cc1sc2c(NC3CC4CCC(C3)N4C)cccc2c1CC(F)(F)F (stereo not shown) [Example 26, N-(2-(3-((2-methoxy-4-(methylsulfonyl)phenyl)amino)prop-1-yn-1-yl)-3-(2,2,2-trifluoroethyl)benzo[b]thiophen-7-yl)-8-methyl-8-azabicyclo[3.2.1]octan-3-amine]

SMILES | EC50 [nM]
COc1cc(S(C)(=O)=O)ccc1NCC#Cc1sc2c(N(C)C3CCN(C)CC3F)cccc2c1CC(F)(F)F (stereo not shown) [Example 42, (Z)-3-fluoro-N-(2-(3-((2-methoxy-4-(methylsulfonyl)phenyl)amino)prop-1-yn-1-yl)-3-(2,2,2-trifluoroethyl)benzo[b]thiophen-7-yl)-N,1-dimethylpiperidin-4-amine] | 654
